How the values were obtained:
Format in all cases: cell-based
[1] = target: T1, SMARCA2 (Homo sapiens, UniProt P51531); experiment: MSD SMARCA2 degradation in A549 cell line; details: for Dmax: A549, A549 cells; for Dmax / DC50: 24 h; for DC50: read-out: SMARCA2 MSD A549 degradation 24 h: Average external-Abs DC50
How it was run: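 SMARCA2 protein remaining after 24 h exposure of A549 cells (top concentration 1000 nM, 3-fold dilutions) was measured by MSD electrochemiluminescence immunoassay of cell lysates. Results are given as binned DC50 and maximal degradation (Dmax) codes.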

[2] = target: T2, SMARCA4 (Homo sapiens, UniProt P51532); experiment: SMARCA4 Western blot degradation in MV4-11 cells; details: for Dmax: MV4-11, MV4-11 cells, read-out: SMARCA4 MSD MV411 degradation 24 h: average Dmax %; for Dmax / DC50: 24 h; for DC50: read-out: SMARCA4 MSD MV411 degradation 24 h: Mean external-Abs DC50
T2 construct: SMARCA2/SMARCA4 protein degradation selectivity in MV4-11 cells; endogenous in cells; host or cells: MV4-11
How it was run: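 Fluorescent LI-COR imaging of Western blots quantified SMARCA2 and SMARCA4 protein remaining in MV4-11 cells after 24 h of compound treatment. β-actin was the loading control, and DC50, Dmax and SMARCA2/4 selectivity are given as letter-coded ranges.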

[3] = target: T1, SMARCA2; experiment: SMARCA2 Western blot degradation in MV4-11 cells; design: SMARCA2/SMARCA4 protein degradation selectivity in MV4-11 cells; endogenous in cells; host or cells: MV4-11; details: for Dmax: MV4-11, MV4-11 cells, read-out: SMARCA2 MSD MV411 degradation 24 h: average Dmax %; for DC50: read-out: SMARCA2 MSD MV411 degradation 24 h: Mean external-Abs DC50; for Selectivity in MV411: SMARCA2/4 selectivity

T2 sequence (P51532 whole entry): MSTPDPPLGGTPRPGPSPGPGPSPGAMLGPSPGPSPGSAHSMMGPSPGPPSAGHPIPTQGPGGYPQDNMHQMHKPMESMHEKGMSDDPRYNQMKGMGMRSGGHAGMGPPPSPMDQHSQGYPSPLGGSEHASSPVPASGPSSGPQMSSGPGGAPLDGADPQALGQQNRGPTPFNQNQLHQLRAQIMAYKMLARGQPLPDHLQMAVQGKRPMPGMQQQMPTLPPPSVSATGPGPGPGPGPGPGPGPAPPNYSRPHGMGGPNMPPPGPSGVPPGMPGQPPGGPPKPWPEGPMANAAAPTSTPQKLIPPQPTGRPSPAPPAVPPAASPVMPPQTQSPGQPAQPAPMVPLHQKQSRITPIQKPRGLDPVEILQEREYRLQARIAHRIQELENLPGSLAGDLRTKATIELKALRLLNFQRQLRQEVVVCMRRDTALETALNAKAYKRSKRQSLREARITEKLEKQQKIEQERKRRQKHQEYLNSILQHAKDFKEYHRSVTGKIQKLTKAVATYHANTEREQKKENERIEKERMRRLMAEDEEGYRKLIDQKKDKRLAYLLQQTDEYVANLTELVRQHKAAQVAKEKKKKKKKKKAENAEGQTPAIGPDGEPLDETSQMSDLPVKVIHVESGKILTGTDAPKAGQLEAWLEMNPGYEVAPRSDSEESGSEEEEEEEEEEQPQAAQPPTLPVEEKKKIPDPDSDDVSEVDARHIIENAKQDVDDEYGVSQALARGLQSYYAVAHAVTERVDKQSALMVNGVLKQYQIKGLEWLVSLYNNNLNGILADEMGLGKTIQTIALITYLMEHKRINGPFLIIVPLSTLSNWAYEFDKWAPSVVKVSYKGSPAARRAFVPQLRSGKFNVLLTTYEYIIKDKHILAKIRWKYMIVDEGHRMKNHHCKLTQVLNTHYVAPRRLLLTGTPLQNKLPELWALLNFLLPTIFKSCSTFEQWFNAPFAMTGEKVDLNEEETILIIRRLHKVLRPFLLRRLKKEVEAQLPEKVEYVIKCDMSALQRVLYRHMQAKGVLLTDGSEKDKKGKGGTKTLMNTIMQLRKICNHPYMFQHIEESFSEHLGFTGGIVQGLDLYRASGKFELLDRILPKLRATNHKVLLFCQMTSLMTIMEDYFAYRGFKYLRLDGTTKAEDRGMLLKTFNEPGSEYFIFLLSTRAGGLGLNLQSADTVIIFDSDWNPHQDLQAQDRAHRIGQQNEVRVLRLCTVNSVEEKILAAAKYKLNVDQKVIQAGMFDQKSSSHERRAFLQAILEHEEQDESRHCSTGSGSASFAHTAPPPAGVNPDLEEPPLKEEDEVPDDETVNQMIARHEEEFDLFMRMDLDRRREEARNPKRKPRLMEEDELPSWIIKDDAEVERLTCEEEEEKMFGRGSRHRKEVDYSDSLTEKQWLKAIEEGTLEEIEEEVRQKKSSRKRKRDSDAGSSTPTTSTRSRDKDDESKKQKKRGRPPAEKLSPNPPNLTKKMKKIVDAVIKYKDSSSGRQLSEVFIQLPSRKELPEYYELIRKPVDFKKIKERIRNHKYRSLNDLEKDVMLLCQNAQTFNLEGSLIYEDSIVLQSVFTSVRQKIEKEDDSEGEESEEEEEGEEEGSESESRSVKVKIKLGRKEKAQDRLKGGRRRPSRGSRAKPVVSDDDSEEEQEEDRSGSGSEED
T1 sequence (P51531 whole entry): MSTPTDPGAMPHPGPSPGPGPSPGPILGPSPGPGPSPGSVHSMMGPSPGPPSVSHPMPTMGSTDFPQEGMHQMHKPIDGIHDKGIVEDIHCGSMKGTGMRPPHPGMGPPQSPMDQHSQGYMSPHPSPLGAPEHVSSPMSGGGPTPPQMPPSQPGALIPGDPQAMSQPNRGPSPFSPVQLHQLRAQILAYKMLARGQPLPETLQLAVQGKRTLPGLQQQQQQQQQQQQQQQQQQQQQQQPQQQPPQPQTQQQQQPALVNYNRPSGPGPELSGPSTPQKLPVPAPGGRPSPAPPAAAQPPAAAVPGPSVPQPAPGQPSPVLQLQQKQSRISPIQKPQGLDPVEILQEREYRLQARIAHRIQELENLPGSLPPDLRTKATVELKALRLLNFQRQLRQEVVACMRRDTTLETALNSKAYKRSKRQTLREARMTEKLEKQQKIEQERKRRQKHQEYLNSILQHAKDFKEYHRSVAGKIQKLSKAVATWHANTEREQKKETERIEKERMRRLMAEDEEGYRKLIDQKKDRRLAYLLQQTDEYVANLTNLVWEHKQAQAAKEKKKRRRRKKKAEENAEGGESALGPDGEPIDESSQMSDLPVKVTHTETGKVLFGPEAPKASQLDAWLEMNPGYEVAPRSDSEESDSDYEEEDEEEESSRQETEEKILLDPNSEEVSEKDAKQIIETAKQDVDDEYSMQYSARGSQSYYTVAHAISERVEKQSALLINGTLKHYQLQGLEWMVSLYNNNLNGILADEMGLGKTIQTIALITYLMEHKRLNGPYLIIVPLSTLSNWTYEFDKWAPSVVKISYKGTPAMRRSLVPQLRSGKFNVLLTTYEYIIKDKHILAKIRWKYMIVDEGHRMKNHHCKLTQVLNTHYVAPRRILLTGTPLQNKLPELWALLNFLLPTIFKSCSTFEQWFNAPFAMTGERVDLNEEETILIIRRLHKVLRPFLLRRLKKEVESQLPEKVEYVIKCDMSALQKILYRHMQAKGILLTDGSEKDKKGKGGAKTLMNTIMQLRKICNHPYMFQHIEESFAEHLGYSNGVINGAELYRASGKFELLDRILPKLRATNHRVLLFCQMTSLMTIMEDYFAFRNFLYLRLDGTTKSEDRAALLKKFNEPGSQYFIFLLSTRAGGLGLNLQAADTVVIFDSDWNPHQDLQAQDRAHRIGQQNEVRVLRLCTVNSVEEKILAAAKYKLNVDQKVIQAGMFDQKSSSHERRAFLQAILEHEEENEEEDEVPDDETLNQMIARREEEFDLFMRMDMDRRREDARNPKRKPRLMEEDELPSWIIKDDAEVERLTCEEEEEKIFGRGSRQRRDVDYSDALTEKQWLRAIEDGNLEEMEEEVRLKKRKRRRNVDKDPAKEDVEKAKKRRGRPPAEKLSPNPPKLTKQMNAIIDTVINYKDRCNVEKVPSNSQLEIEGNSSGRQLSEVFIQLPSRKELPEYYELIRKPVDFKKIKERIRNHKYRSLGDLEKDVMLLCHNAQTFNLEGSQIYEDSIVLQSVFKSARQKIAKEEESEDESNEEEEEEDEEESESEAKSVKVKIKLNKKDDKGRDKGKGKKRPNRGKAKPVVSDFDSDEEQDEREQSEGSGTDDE

Structure (SMILES) | Dmax [1] [%] | DC50 ([1]; A549 cells) [nM] | Dmax [2] [%] | DC50 ([2]; MV4-11 cells) [nM] | Dmax ([3]; 24 h) [%] | DC50 ([3]; MV4-11 cells, 24 h) [nM] | Selectivity in MV411 ([3]; MV4-11 cells) | SMARCA2 MSD A549 degradation 24 h: Average Dmax % ([1]; A549 cells) | SMARCA4 MSD MV411 degradation 24 h: average Dmax % ([2]; MV4-11 cells) | SMARCA2 MSD MV411 degradation 24 h: average Dmax % ([3]; MV4-11 cells, 24 h)
C#Cc1ccc(CNC(=O)[C@@H]2C[C@@H](O)CN2C(=O)[C@@H](NC(=O)[C@H]2CC3(C2)C[C@H](N2CCN(C(=O)CCN4CCN5c6cc(-c7ccccc7O)nnc6NC[C@H]5C4)CC2)C3)C(C)(C)C)cc1 (stereo partly shown) [I-274] | > 90 | > 100 | > 90 | 10 to 100 | > 90 | 1 to 10 | C (C (10-100 fold)) |  |  | 
C#Cc1ccc([C@H](C)NC(=O)[C@@H]2C[C@@H](O)CN2C(=O)[C@@H](NC(=O)N2CC3(CC(N4CCC(c5cnc(N6CCc7[nH]c8nnc(-c9ccccc9O)cc8c7[C@H]6CO)nc5)CC4)C3)C2)C(C)(C)C)cc1 [I-321] | > 90 | 10 to 50 | < 50 | > 100 | 70 to 90 | 1 to 10 | A (A (>500 fold)) |  |  | 
C#Cc1ccc(CNC(=O)[C@@H]2C[C@@H](O)CN2C(=O)[C@@H](NC(=O)N2CC3(CC(c4cnc(N5CCC(N6CCN7c8cc(-c9ccccc9O)nnc8NC[C@H]7C6)CC5)nc4)C3)C2)C(C)(C)C)cc1 [I-276] | > 90 | < 10 | > 90 | 10 to 100 | > 90 | 1 to 10 | C (C (10-100 fold)) |  |  | 
C#Cc1ccc(CNC(=O)[C@@H]2C[C@@H](O)CN2C(=O)[C@@H](NC(=O)N2CC3(CC(N4CCC(c5cnc(N6CCc7[nH]c8nnc(-c9ccccc9O)cc8c7[C@H]6C)nc5)CC4)C3)C2)C(C)(C)C)c(OCC(=O)O)c1 [I-144] | > 90 | 10 to 50 | 70 to 90 | > 100 | 70 to 90 | 1 to 10 | C (C (10-100 fold)) |  |  | 
Cc1ncsc1-c1ccc(CNC(=O)[C@@H]2C[C@@H](O)CN2C(=O)C(c2cc(N3CC4(CCC(N5CCC(c6cnc(N7CCc8[nH]c9nnc(-c%10ccccc%10O)cc9c8[C@H]7C)nc6)CC5)CC4)C3)no2)C(C)C)cc1 (single isomer, unassigned) [I-14] | 70 to 90 | < 10 | > 90 | 1 to 10 | > 90 | < 1 | D (D (<10 fold)) |  |  | 
C#Cc1cnc(CNC(=O)[C@@H]2C[C@@H](O)CN2C(=O)[C@@H](NC(=O)[C@H]2CCC3(CC2)C[C@H](N2CCC(c4cnc(N5CCN6c7cc(-c8ccccc8O)nnc7NC[C@H]6C5)nc4)CC2)C3)C(C)(C)C)c(OC)c1 (single isomer, unassigned) [I-286] | 50 to 70 | > 100 | < 50 | > 100 | < 50 | > 100 | D (D (<10 fold)) |  |  | 
C#Cc1ccc(CNC(=O)[C@@H]2C[C@@H](O)CN2C(=O)[C@@H](NC(=O)N2CC3(CC(N4CCC(c5cnc(N6CCc7[nH]c8nnc(-c9ccccc9O)cc8c7[C@H]6C)nc5)CC4)C3)C2)C(C)(C)C)c(OCCCN(C)C)c1 [I-127] | > 90 | > 100 | 70 to 90 | > 100 | 70 to 90 | 10 to 100 | D (D (<10 fold)) |  |  | 
C#Cc1cc(O)c(CNC(=O)[C@@H]2C[C@@H](O)CN2C(=O)[C@@H](NC(=O)N2CC3(CC(N4CCC(c5cnc(N6CCc7[nH]c8nnc(-c9ccccc9O)cc8c7[C@H]6C)nc5)CC4)C3)C2)C(C)(C)C)c(Cl)c1 [I-281] | < 50 | > 100 | < 50 | > 100 | < 50 | > 100 | D (D (<10 fold)) |  |  | 
Cc1ncsc1-c1ccc(CNC(=O)[C@@H]2C[C@@H](O)CN2C(=O)[C@@H](NC(=O)[C@H]2CC3(C2)C[C@H](N2CCN(c4cnc(N5CCN6c7cc(-c8ccccc8O)nnc7NC[C@H]6C5)nc4)CC2)C3)C(C)(C)C)cc1 (stereo partly shown) [I-19] |  | 10 to 50 |  | 10 to 100 |  | 1 to 10 | C (C (10-100 fold)) | A (A (>90% degradation)) | B (B (>70-90% degradation)) | A (A (>90% degradation))
C#Cc1ccc(CNC(=O)[C@@H]2C[C@@H](O)CN2C(=O)[C@@H](NC(=O)[C@H]2CC3(C2)C[C@H](N2CCC(N4CCC(N5CCN6c7cc(-c8ccccc8O)nnc7NC[C@H]6C5)CC4)CC2)C3)C(C)(C)C)c(O)c1 (stereo partly shown) [I-242] |  | 50 to 100 |  | 10 to 100 |  | 1 to 10 | C (C (10-100 fold)) |  |  | 
C#Cc1ccc(CNC(=O)[C@@H]2C[C@@H](O)CN2C(=O)[C@@H](NC(=O)N2CCN(C[C@@H]3CCN(c4cnc(N5CCc6[nH]c7nnc(-c8ccccc8O)cc7c6[C@H]5C)nc4)C3)CC2)C(C)(C)C)cc1 (single isomer, unassigned) [I-161] | > 90 | > 100 | 50 to 70 | > 100 | 50 to 70 | 10 to 100 | C (C (10-100 fold)) |  |  | 
C#Cc1ccc(CNC(=O)[C@@H]2C[C@@H](O)CN2C(=O)[C@@H](NC(=O)N2CCN(C[C@H]3CC[C@@H](N4CCC(N5CCN6c7cc(-c8ccccc8O)nnc7NC[C@H]6C5)CC4)CC3)CC2)C(C)(C)C)cc1 [I-255] | 70 to 90 | > 100 | < 50 | > 100 | 70 to 90 | 10 to 100 | B (B (>100-500 fold)) |  |  | 
Cc1ncsc1-c1ccc([C@H](C)NC(=O)[C@@H]2C[C@@H](O)CN2C(=O)[C@@H](NC(=O)Cc2ccc(CCCC(=O)N3CCN4c5cc(-c6ccccc6O)nnc5NC[C@H]4C3)cc2)C(C)(C)C)cc1 (single isomer, unassigned) [I-83] | 70 to 90 | 50 to 100 | > 90 | 10 to 100 | > 90 | 1 to 10 | C (C (10-100 fold)) |  |  | 
C#Cc1ccc([C@H](CCO)NC(=O)[C@@H]2C[C@@H](O)CN2C(=O)[C@@H](NC(=O)N2CC3(CC(N4CCC(c5cnc(N6CCc7[nH]c8nnc(-c9ccccc9O)cc8c7[C@H]6C)nc5)CC4)C3)C2)C(C)(C)C)cc1 [I-169] | > 90 | 10 to 50 | < 50 | > 100 | 70 to 90 | 1 to 10 | B (B (>100-500 fold)) |  |  | 
C#Cc1ccc(CNC(=O)[C@@H]2C[C@@H](O)CN2C(=O)[C@@H](NC(=O)N2CC3(CC(N4CC5(CC(N6CCC(N7CCc8[nH]c9nnc(-c%10ccccc%10O)cc9c8[C@H]7C)CC6)C5)C4)C3)C2)C(C)(C)C)cc1 [I-205] | > 90 | > 100 | < 50 | > 100 | < 50 | > 100 | C (C (10-100 fold)) |  |  | 
C#Cc1ccc(CNC(=O)[C@@H]2C[C@@H](O)CN2C(=O)[C@@H](NC(=O)N2CCN(CC3CCN([C@H]4CC[C@@H](N5CCc6[nH]c7nnc(-c8ccccc8O)cc7c6[C@H]5C)CC4)CC3)CC2)C(C)(C)C)cc1 [I-203] | 70 to 90 | > 100 | < 50 | > 100 | < 50 | > 100 | C (C (10-100 fold)) |  |  | 
